In patent US20190075797A1, “Safened Herbicidal compositions containing halauxifen or 4-amino-3-chloro-6-(4-chloro-2-fluoro-3-methoxyphenyl)-5-fluoropyridine-2-carboxylic acid and methods of use thereof in centipedegrass” (Dow AgroSciences LLC, priority 2017, published 2019):
Counter-ions that a name gives are not always drawn. Like-named read-outs stand apart in the source and are kept apart here.

Test system: centipedegrass
Details: for centipedegrass injury: dicamba alone, 0 to 10 scale; for Observed Injury: 0-10 scale, 0=no injury, 10=death
Procedure: A trial was initiated Apr. […] Research was conducted as a randomized complete block design (4 reps), with plot size equal to 6 square meters (2 meter width and 3 meter length). This provided a roughly 1.5 foot buffer between experimental units for reference. Herbicide treatments were applied within a water carrier volume of 40 gallons/acre. A two inch rainfall occurred 48 hours prior to initiation (April 17). Time to next rainfall: roughly 1 inch fell during the late night hours of the 21st and early morning of 22nd. Centipedegrass was approximately 90% green cover at time of treatment-almost fully transitioned from winter dormancy. […] Turf injury (0-10 scale, 0=no injury, 10=death), color (1-9 scale, 1=brown, 9=dark green), and density (0-100%) were evaluated 5, 8, 13, 23, 29 and 44 days after treatment (DAT). Data were subject to analysis of variance (alpha=0.05). Means separations were estimated using Student Knewman Keul's test (alpha=0.05) within ARM v.

COc1c(Cl)ccc(Cl)c1C(=O)O [Dicamba MIBPA, N,N-bis(3-aminopropyl)methylamine salt (MIBPA) of dicamba]
centipedegrass injury (23 DAT, regardless of rate): < 0.8
centipedegrass injury (29 DAT, across all rates): 0
Observed Injury (Dicamba MIBPA 0.12 lb ae/a alone, 5 DAA): 0.0
Observed Injury (Dicamba MIBPA 0.12 lb ae/a alone, 8 DAA): 0.0
Observed Injury (Dicamba MIBPA 0.12 lb ae/a alone, 13 DAA): 0.0
Observed Injury (Dicamba MIBPA 0.12 lb ae/a alone, 23 DAA): 0.38
Observed Injury (Dicamba MIBPA 0.12 lb ae/a alone, 29 DAA): 0.00
Observed Injury (Dicamba MIBPA 0.12 lb ae/a alone, 44 DAA): 0.25
Observed Injury (Dicamba MIBPA 0.24 lb ae/a alone, 5 DAA): 0.0
Observed Injury (Dicamba MIBPA 0.24 lb ae/a alone, 8 DAA): 0.0
Observed Injury (Dicamba MIBPA 0.24 lb ae/a alone, 13 DAA): 0.0
Observed Injury (Dicamba MIBPA 0.24 lb ae/a alone, 23 DAA): 0.38
Observed Injury (Dicamba MIBPA 0.24 lb ae/a alone, 29 DAA): 0.00
Observed Injury (Dicamba MIBPA 0.24 lb ae/a alone, 44 DAA): 0.38
Observed Injury (Dicamba MIBPA 0.36 lb ae/a alone, 5 DAA): 0.0
Observed Injury (Dicamba MIBPA 0.36 lb ae/a alone, 8 DAA): 0.0
Observed Injury (Dicamba MIBPA 0.36 lb ae/a alone, 13 DAA): 0.0
Observed Injury (Dicamba MIBPA 0.36 lb ae/a alone, 23 DAA): 0.75
Observed Injury (Dicamba MIBPA 0.36 lb ae/a alone, 29 DAA): 0.00
Observed Injury (Dicamba MIBPA 0.36 lb ae/a alone, 44 DAA): 0.50
